The text below walks through data of US20130245355A1, “3-HETARYL-SUBSTITUTED PYRROLO[2,3 B]PYRIDINE DERIVATIVES AS PDK1 INHIBITORS” (MERCK PATENT GMBH, priority 2010, published 2013).

In test [1] the target is T1, PDK1 (Homo sapiens, UniProt O15530).
T1 construct: His6 (N)
T1 sequence (O15530 51-556 limits assumed): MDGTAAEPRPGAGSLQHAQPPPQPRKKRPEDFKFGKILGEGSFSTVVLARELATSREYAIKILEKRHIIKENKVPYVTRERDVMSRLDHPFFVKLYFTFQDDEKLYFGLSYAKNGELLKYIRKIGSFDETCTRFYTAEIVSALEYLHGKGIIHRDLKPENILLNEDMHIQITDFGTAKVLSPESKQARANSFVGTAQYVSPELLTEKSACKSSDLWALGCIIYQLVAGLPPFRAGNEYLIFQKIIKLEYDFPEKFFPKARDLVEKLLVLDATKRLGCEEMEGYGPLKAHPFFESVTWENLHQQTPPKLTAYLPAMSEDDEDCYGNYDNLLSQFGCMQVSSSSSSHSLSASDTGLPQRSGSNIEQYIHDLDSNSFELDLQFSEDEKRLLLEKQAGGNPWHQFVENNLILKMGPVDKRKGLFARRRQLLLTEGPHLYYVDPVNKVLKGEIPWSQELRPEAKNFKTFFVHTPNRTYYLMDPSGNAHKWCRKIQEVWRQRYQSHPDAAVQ
The test is described as follows: Test for the inhibition of PDK1 (flashplate, 33P-ATP). The settings on record: His6-PDK1 (1-50) 3.4 nM, 4 μM ATP, 30° C., 60 min; read-out: IC50 [PDK1] biochemical. How it is done:
The experimental batches are carried out in a flashplate system with 384 wells/microtitration plate.
In each case, the PDK1 sample His6-PDK1 (1-50) (3.4 nM), the PDK1 substrate biotin-bA-bA-[…] (400 nM), 4 μM ATP (with 0.2μ Ci of ^33P-ATP/well) and the test substance in 50 μl of conventional experimental solution per well are incubated at 30° C. for 60 min. The test substances are employed in corresponding concentrations (if desired in a dilution series). The control is carried out without test substance. The reaction is stopped using standard methods and washed. The activity of the kinase is measured via the incorporated radioactivity in top count. In order to determine the non-specific kinase reaction (blank value), the experimental batches are carried out in the presence of 100 nM staurosporin.
The radioactivity (decompositions per minute) of the blank value (no use of test substance in the presence of staurosporin) is subtracted from all other radioactivity values. The controls (kinase activity without test substance) are set equal to 100 percent and all other radioactivity values (after subtracting the blank value) are expressed set in relation thereto (for example in % of the control).
IC50 values (50% inhibition) are determined with the aid of statistics programmes, such as, for example, RS1.

Test [2] addresses T2, PDK1 (Homo sapiens, UniProt O15530).
T2 construct: endogenous in cells; host or cells: PC3 cells
T2 sequence (O15530 1-556): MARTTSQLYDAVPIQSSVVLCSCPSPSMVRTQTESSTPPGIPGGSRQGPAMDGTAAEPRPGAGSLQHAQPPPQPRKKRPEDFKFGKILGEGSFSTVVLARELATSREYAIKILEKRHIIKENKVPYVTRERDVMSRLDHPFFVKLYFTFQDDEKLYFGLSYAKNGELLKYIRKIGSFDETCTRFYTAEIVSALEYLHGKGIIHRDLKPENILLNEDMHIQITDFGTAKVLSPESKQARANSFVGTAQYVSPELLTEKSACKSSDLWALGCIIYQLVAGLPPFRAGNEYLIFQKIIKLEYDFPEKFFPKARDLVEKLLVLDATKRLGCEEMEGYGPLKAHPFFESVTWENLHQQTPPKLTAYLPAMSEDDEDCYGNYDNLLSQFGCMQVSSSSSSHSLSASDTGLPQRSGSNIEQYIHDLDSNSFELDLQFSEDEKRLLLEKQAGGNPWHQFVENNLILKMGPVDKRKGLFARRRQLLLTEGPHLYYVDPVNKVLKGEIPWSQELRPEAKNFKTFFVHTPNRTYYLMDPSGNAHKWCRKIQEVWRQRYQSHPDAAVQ
As to the kind of experiment: Cellular testing of PDK1 kinase inhibitors in PC3 cells (Luminex, phospho-T308-PKB). It is filed as cell-based. The settings on record: 30 min, serum-free. As for the experimental part: Method for the Cellular Testing of PDK1 Kinase Inhibitors in PC3 Cells.
The cellular assay for the determination of the PDK1 kinase activity is carried out as a Luminex assay in the 96-well format. PC3 cells are sown at 20,000 cells per well in 100 μl of medium (45% of […]/45% of Ham's F12/10% of FCS) and incubated on the following day for 30 min with a serial dilution of the test substance (7 concentrations) under serum-free conditions. The cells are subsequently lysed using 90 μl of lysis buffer (20 mM tris/HCl pH 8.0, 150 mM NaCl, 1% of NP40, 10% of glycerol, 1% of phosphatase inhibitor I, 1% of phosphatase inhibitor II, 0.1% of protease inhibitor cocktail III, 0.01% of benzonase) per well, and the lysates are separated off from insoluble cell constituents by means of centrifugation through a 96-well filter plate (0.65 μm). The lysates are incubated overnight at 4° C. with shaking with Luminex beads to which an anti-total PKB antibody is coupled. The detection is carried out on the following day by addition of a phospho-T308-PKB antibody and a species-specific […] secondary antibody. The detection of phospho T308-PKB is carried out by measurement in a Luminex100 instrument by determination of 100 events per cavity in a measurement time of 60 sec. As pharmacological blank, the signals obtained from cells which have been treated with 10 μM staurosporin are subtracted from all other batches. The control value used for maximum phosphorylation of PKB on T308 are the signals from cells which have only been treated with the solvent (0.3% of DMSO). The values of the batches treated with test substance are calculated therefrom as percentage of control, and IC50 values are determined by means of RS 1.

For orientation: IC50 means the concentration that gives 50% inhibition.

As for `Cn1cc(-c2cnc3[nH]cc(-c4n[nH]c(C(C)(O)c5ccccc5F)n4)c3c2)cn1` (centres unmarked) [A49], the values for the 50% inhibitory concentration (IC50) at PDK1 [1] and against PDK1 [2] were 0.0005 to 1 µM and 1 to 10 µM, respectively.

In the case of `Cn1cc(-c2cnc3[nH]cc(-c4noc(C(C)(O)c5ccccc5F)n4)c3c2)cn1` (centres unmarked) [A50], the half-inhibitory concentration (IC50) fell in the range of 0.0005 to 1 µM on PDK1 [1] and 1 to 10 µM against PDK1 [2].

`Cn1cc(-c2cnc3[nH]cc(-c4noc(C(C)(O)c5cccc(F)c5)n4)c3c2)cn1` (centres unmarked) [A51]: the half-maximal inhibitory concentration (IC50) at PDK1 [1] fell in the range of 0.0005 to 1 µM; against PDK1 [2], 1 to 10 µM.

Take `Cn1cc(-c2cnc3[nH]cc(-c4noc(C(C)(O)c5cccc(F)c5F)n4)c3c2)cn1` (centres unmarked) [A52]: the figures for the 50% inhibitory concentration (IC50) at PDK1 [1] and at PDK1 [2] were 0.0005 to 1 µM and 1 to 10 µM, respectively.

As to `Cn1cc(-c2cnc3[nH]cc(-c4n[nH]c(C(C)(O)c5cccc(F)c5F)n4)c3c2)cn1` (centres unmarked) [A54], the IC50 fell in the range of 0.0005 to 1 µM on PDK1 [1] and 1 to 10 µM against PDK1 [2].

On to `Cn1cc(-c2cnc3[nH]cc(-c4nnc(C(O)c5ccc(F)cc5)o4)c3c2)cn1` (centres unmarked) [A57, (4-fluorophenyl)-{5-[5-(1-methyl-1H-pyrazol-4-yl)-1H-pyrrolo[2,3-b]pyridin-3-yl]-1,3,4-oxadiazol-2-yl}methanol], for which the concentration for half-maximal inhibition (IC50) at PDK1 [1] was in the range of 0.0005 to 1 µM; at PDK1 [2], 1 to 10 µM.

For `Cn1cc(-c2cnc3[nH]cc(-c4nnc(C(O)c5cccc(Cl)c5)o4)c3c2)cn1` (centres unmarked) [A59], the IC50 on PDK1 [1] and against PDK1 [2] was 0.0005 to 1 µM throughout.

For the compound `Cn1cc(-c2cnc3[nH]cc(-c4nnc(C(O)c5ccc(Cl)cc5)o4)c3c2)cn1` (centres unmarked) [A60], the concentration for half-maximal inhibition (IC50) at PDK1 [1] and at PDK1 [2] was 1 to 10 µM in each case.

Consider `Cn1cc(-c2cnc3[nH]cc(-c4cc(C(C)(O)c5cccc(F)c5F)on4)c3c2)cn1` (centres unmarked) [A61], for which the IC50 on PDK1 [1] and against PDK1 [2] was 0.0005 to 1 µM in each case.

As to `Cn1cc(-c2cnc3[nH]cc(-c4cc(C(C)(O)c5cccc(F)c5F)[nH]n4)c3c2)cn1` (centres unmarked) [A64], the IC50 on PDK1 [1] and on PDK1 [2] was 0.0005 to 1 µM throughout.

In the case of `Cn1cc(-c2cnc3[nH]cc(-c4nnc(C(O)c5cccc(Cl)c5Cl)o4)c3c2)cn1` (centres unmarked) [A65], the IC50 on PDK1 [1] and against PDK1 [2] was 0.0005 to 1 µM each time.

As to `Cn1cc(-c2cnc3[nH]cc(-c4nc(C(C)(O)c5ccccc5)no4)c3c2)cn1` (centres unmarked) [A67], the IC50 was in the range of 1 to 10 µM on PDK1 [1] and 0.0005 to 1 µM against PDK1 [2].

Consider `Cn1cc(-c2cnc3[nH]cc(-c4cc(C(C)(O)c5ccccc5)n(CCO)n4)c3c2)cn1` (centres unmarked) [A68], for which the IC50 at PDK1 [1] lay within 0.0005 to 1 µM; at PDK1 [2], 1 to 10 µM.

With `C=C(c1ccccc1)c1cc(-c2c[nH]c3ncc(-c4cnn(C)c4)cc23)nn1CCO` [A69], the concentration for half-maximal inhibition (IC50) on PDK1 [1] and at PDK1 [2] was 1 to 10 µM in each case.

`Cn1cc(-c2cnc3[nH]cc(-c4nnc(C5(c6ccccc6F)CC5)o4)c3c2)cn1` [A70]: the IC50 on PDK1 [1] and at PDK1 [2] was 0.0005 to 1 µM each time.

In the case of `Cn1cc(-c2cnc3[nH]cc(-c4nc(C(C)(O)c5cccc(F)c5)no4)c3c2)cn1` (centres unmarked) [A72], the IC50 at PDK1 [1] and at PDK1 [2] was 0.0005 to 1 µM each time.
